Experimental data published in patent US6303577A, “Use of a peptide compound in the treatment of systemic lupus erythematosus” (Tecnogen S.C.p.A., priority 1998, dated 2001).

Experiments:
[1] = tested on: MRL/Ipr mice; experiment: Survival in mouse model of Systemic Lupus Erythematosus; format: in vivo; conditions: 1 mg i.p. twice a week from 7 weeks of age
Protocol: (§1) In vivo studies on the activity of the peptide compounds of formula (I) were carried out by using an experimental animal model of human Systemic Lupus Erythematosus. MRL/Ipr, NZB/NZW or BXSB denote mouse strains that spontaneously develop an autoimmune syndrome having notable similarities to human Systemic Lupus Erythematosus. The MRL-Ipr/Ipr strain is homozigotic for Ipr gene. The lpr mutation causes functional defects in the Fas Ag. Fas belongs to the TNF receptor family and mediates apoptosis (Watanabe-Fukunaga, R. et al., "Nature", 356, 314, 1992; Itoh, N., et al., "Cell", 66, 233, 1991; Murphy, E. D., "Immunological defects in Laboratory Animals", 2, 143, 1981; Steinberg, A. D., "Semin. Immunol.", 6, 55, 1994). Autoimmune disease in MRL/Ipr mice is characterized by autoantibody production, vasculitis, arthritis, and glomerulonephritis that is the major cause of death (Theofilopoulos, A. N., et al., "Adv. Immunol.", 37, 269, 1985; Cohen, P. L., et al., "Annu. Rev. Immunol.", 9, 243, 1991).
(§2) At 7 weeks of age, mice were treated twice a week with 1 mg of D-PAM, L-PAM or placebo […] administered intraperitoneally. The treatment was stopped at 30 weeks of age. Mice were observed daily for clinical signs of disease and for mortality and were bled every 2 weeks for determination of anti-DNA antibody production, while urine protein levels were determined on samples taken twice a week.
Coincident with ameliorating the clinical signs of severe immune complex nephritis, a dramatic prolongation of survival was observed.

[2] = tested on: Balb/c mice; conditions: mouse, in vivo
Protocol: The ability of the peptide compounds of formula (I) to evoke an antibody response has been evaluated by immunizing two groups of four Balb/c mice with 100 μg of D-PAM or L-PAM respectively by i.p. injection. After the first immunization, the same immunogen was administered for two subsequent boosts, blood samples were collected from each animal for monitoring antibody titers by an ELISA assay as follow.
Polystyrene microtiter plates (Falcon Cat. No 3912) were coated with a 50 μg/ml D-PAM and L-PAM conjugated to BSA (100 μl/well) in 0.1 M sodium carbonate buffer (pH 8.5) and incubated over night at 4° C. After washing the microtiter plates ten times with a 50 mM phosphate, 150 mM NaCI pH 7.2 buffer (PBS), the wells were saturated with 200 μl of PBS containing bovine serum albumin (BSA, Sigma Cat. No A-9418) for 1 hour at 37° C., to block the uncoated plastic surface. Plates were then washed again with PBS containing 0.05% Tween 20 (PBS-T), and filled with samples (100 μl/well) previously diluted with PBS-T containing 1% BSA (PBS-T-B). […] The color was allowed to develop for 30' and absorbances were read at 405 nm with an ELISA plate reader (Labsystems Multiskan Bichromatic). […]

[3] = in vitro; format: in vitro ADME, mouse; conditions: for remaining at 5 min / remaining at 20 min / remaining at 40 min / remaining at 1 h: mouse, serum
Protocol: The stability of the peptide compounds of formula (I) to proteolytic attack by proteases has been evaluated by High Performance Liquid Chromatography (HPLC).
Mouse sera were obtained by cutting a small section off tip of tail and collecting some blood drops. After collection, blood was incubated for 1 hour at 37° C. and then serum was removed from the clot by centrifugation at 1200 g for 20' at 4° C. Various amounts of peptide compounds of formula (I) were added to 50 μl of serum and the mixture was incubated at 37° C. for different periods of time. Afterwards, 2 μl of the reaction mixture were added to 50 μl of 0.1 M acetic acid in order to elute the peptide compound from serum immunoglobulins. Samples were then stored at -80° C. until use.
Analysis of samples was carried out on an Aquapore RP-8 column (30×2.1 mm I.D.), eluting the equilibrated column at a flow rate of 0.5 ml/min with a linear gradient of 0.1% trifluoracetic acid buffer containing increasing acetonitrile concentration from 5% to 60% in 35'. Elution was monitored by absorbance at 225 nm.

[4] = tested on: MRL/Ipr mice; experiment: Urine protein levels (dipstick) in mouse model of Systemic Lupus Erythematosus; format: in vivo; conditions: for Mice with proteinuria level >1 g/L (%): 1 mg i.p. twice a week from 7 weeks of age
Protocol: as §1, §2
Urine protein levels were determined by colorimetric analysis using dipsticks (Combur 7, Boehringer Mannheim, n. cat. 185515) according to protocols from the manufacturer (Wang et al., "Proc. Natl. Acad. Sci. USA", 93, 8563-8568, 1996).

[5] = tested on: MRL/Ipr mice; experiment: Histopathologic examination of renal tissue; format: in vivo, mouse; conditions: hematoxylin and eosin, light microscope
Protocol: as §1
as §2, with “The treatment was stopped at 30 weeks of age.” left out, “week. […]” for “week.”

[6] = tested on: MRL/Ipr mice; experiment: Serum anti-DNA antibodies by ELISA in mouse model of Systemic Lupus Erythematosus; format: in vivo; conditions: 1 mg i.p. twice a week from 7 weeks of age
Protocol: as §1, §2
Standard ELISA assay to measure the serum levels of anti-DNA antibodies was performed as follow. Microtiter plates (Costar, Cat. No 3590) were coated with a 10 μg/ml DNA (Sigma Cat. No D-8899) solution (100 μl/well) in 0.01 M phosphate buffer (pH 8.0) and incubated over night at 4° C. After washing the microtiter plates ten times with a 50 mM phosphate, 150 mM NaCl pH 7.2 buffer (PBS) containing 0.05% Tween (PBS-T), the wells were saturated with 200 μl of PBS-T containing fetal calf serum (1%) heat-inactivated 1 hour at 56° C. (PBS-T-FCS), and incubated for 2 hours at room temperature, to block the uncoated plastic surface. Plates were then washed again with PBS-T, and filled with samples (100 μl/well) previously diluted with PBS-T-FCS. After incubation for 2 hours at room temperature and subsequent washing, wells were filled with 100 μl of horseradish peroxidase labeled goat anti-mouse polyvalent immunoglobulins (IgG, IgA, IgM) (Sigma, Cat. No A-0412) solution diluted 1000 fold with PBS-T-FCS. The plates were then left to stand for 1 hour at room temperature, washed ten times and then filled with 150 μl of ophenylenediamine dihydrochloride (Sigma Cat. No P-6912) chromogenic substrate solution freshly prepared according to protocols from the manufacturer. The color was allowed to develop for 30' and the adsorbance at 450 nm were determined with an ELISA plate reader (Labsystems Multiskan Bichromatic).

SMILES | Survival rate (%) ([1]; time 15 weeks) | Survival rate (%) ([1]; time 20 weeks) | Survival rate (%) ([1]; time 25 weeks) | Survival rate (%) ([1]; time 30 weeks) | Antibody titer (A 405) [2] [A 405] | remaining at 5 min [3] [%] | remaining at 20 min [3] [%] | remaining at 40 min [3] [%] | remaining at 1 h [3] [%] | Onset of severe proteinuria versus untreated animals (in words) ([4]; 1 mg i.p. twice a week) | Mice with proteinuria level >1 g/L (%) ([4]; time 8 weeks) | Mice with proteinuria level >1 g/L (%) ([4]; time 13 weeks) | Mice with proteinuria level >1 g/L (%) ([4]; time 18 weeks) | Mice with proteinuria level >1 g/L (%) ([4]; time 23 weeks) | Mice with proteinuria level >1 g/L (%) ([4]; time 28 weeks) | Glomerulonephropathic progression versus positive control group (in words) [5] | Ig Anti-DNA titer (O.D.) fold increase ([6]; time 8 weeks) [fold increase] | Ig Anti-DNA titer (O.D.) fold increase ([6]; time 10 weeks) [fold increase] | Ig Anti-DNA titer (O.D.) fold increase ([6]; time 14 weeks) [fold increase] | Ig Anti-DNA titer (O.D.) fold increase ([6]; time 16 weeks) [fold increase] | further results
C[C@@H](O)[C@H](NC(=O)[C@@H](N)CCCNC(=N)N)C(=O)N[C@@H](Cc1ccc(O)cc1)C(=O)NCCCC[C@H](NC(=O)[C@H](Cc1ccc(O)cc1)NC(=O)[C@@H](NC(=O)[C@@H](N)CCCNC(=N)N)[C@@H](C)O)C(=O)NCCCC[C@H](NC(=O)[C@H](CCCCNC(=O)[C@H](Cc1ccc(O)cc1)NC(=O)[C@@H](NC(=O)[C@@H](N)CCCNC(=N)N)[C@@H](C)O)NC(=O)[C@H](Cc1ccc(O)cc1)NC(=O)[C@@H](NC(=O)[C@@H](N)CCCNC(=N)N)[C@@H](C)O)C(=O)NCC(=O)O [L-PAM, (H2 N-L-Arg-L-Thr-L-Tyr-CO)4 -(Lys)2 -Lys-Gly-OH] | 100 | 90 | 50 | 40 | 0.462 | 57 | 31 | 19 | 12 | marked delay in the onset of severe proteinuria | 0 | 0 | 10 | 50 | 60 | evident reduction in the glomerulonephropathic progression | 1.8 | 2.5 | 3.6 | 3.6 | Ig Anti-DNA titer (O.D.) fold increase ([6]; time 18 weeks): 4.5 fold increase
C[C@H](O)[C@@H](NC(=O)[C@H](N)CCCNC(=N)N)C(=O)N[C@H](Cc1ccc(O)cc1)C(=O)NCCCC[C@H](NC(=O)[C@@H](Cc1ccc(O)cc1)NC(=O)[C@H](NC(=O)[C@H](N)CCCNC(=N)N)[C@H](C)O)C(=O)NCCCC[C@H](NC(=O)[C@H](CCCCNC(=O)[C@@H](Cc1ccc(O)cc1)NC(=O)[C@H](NC(=O)[C@H](N)CCCNC(=N)N)[C@H](C)O)NC(=O)[C@@H](Cc1ccc(O)cc1)NC(=O)[C@H](NC(=O)[C@H](N)CCCNC(=N)N)[C@H](C)O)C(=O)NCC(=O)O [D-PAM, (H2 N-D-Arg-D-Thr-D-Tyr-CO)4 -(Lys)2 -Lys-Gly-OH] | 100 | 100 | 90 | 80 | 0.663 | 83 | 73 | 68 | 63 | marked delay in the onset of severe proteinuria | 0 | 0 | 0 | 20 | 30 | evident reduction in the glomerulonephropathic progression | 1.8 | 2.5 | 3.5 | 3.5 | Stability to proteolytic attack (in words) [3]: more stable to proteolytic attack than L-PAM; Time until which treated mice did not develop proteinuria ([4]; 1 mg i.p. twice a week): 20 weeks; Ig Anti-DNA titer (O.D.) fold increase ([6]; time 18 weeks): 4.3 fold increase
